Test results: patent US20040162221A1, “Pyrazole derivatives and herbicides containing the same” (IDEMITSU KOSAN CO., LTD., priority 1998, published 2004)

Columns and labels:
corn [1] = experiment: Upland pre-emergence treatment test, phytotoxicity to corn; assay type: in vivo; details: pre-emergence soil surface spray, 80 g/ha, 20th day after treatment, greenhouse; note: ranges in brackets are in %
Description: (§1) 97 Parts by weight of talc (trade name: Zeaklite, supplied by Zeaklite Industry) as a carrier, 1.5 parts by weight of alkylarylsulfonic acid salt (trade name: Neoplex, supplied by Kao-Atlas K.K.) as a surfactant and 1.5 parts by weight of a nonionic and anionic surfactant (trade names Sorpol 800A, supplied by Toho Chemical Co., Ltd.) were uniformly pulverized and mixed to prepare a carrier for a wettable powder.
(§2) 90 Parts by weight of the above carrier for a wettable powder and 10 parts by weight of one of the compounds of the present invention were uniformly pulverized and mixed to obtain herbicides. Further, in Comparative Herbicide Examples, comparative herbicides were also prepared from the following compounds (A) and (B) in the same manner.
(§3) Herbicidal efficacy and phytotoxicity to crops were determined on the basis of the ratio of remaining plant weight to plant weight in non-treated plot=(remaining plant weight in treated plot/plant weight in non-treated-plot)×100. The ratings were applied to the following biological tests.
(§4) Seeds of weeds such as velvetleaf, common lambsquaters, redroot pigweed, common ragweed, green foxtail and large crabgrass and seeds of corn were sown in 1/5,000-are Wagner pots filled with upland soil, and covered with upland soil. Then, a predetermined amount of the herbicide prepared in the above (1) was suspended in water, and the suspension was uniformly sprayed onto the soil surface at a rate of 2,000 liters/hectare. Then, the seeds were grown in a greenhouse, and on the 20th day after the treatment, the herbicide was evaluated for herbicidal efficacy and phytotoxicity to corn on the basis of the ratings shown in (2).

green foxtail [2] = experiment: Upland post-emergence treatment test, green foxtail; assay type: in vivo, green foxtail (Setaria viridis); details: post-emergence spray at 3-4 leaf stage, 80 g/ha, 30th day after treatment, greenhouse; note: ranges in brackets are in %
Description: as §1, §2, §3
(§5) Seeds of weeds velvetleaf, redroot pigweed, common ragweed, green foxtail and large crabgrass and seeds of corn were sown in 1/5,000-are Wagner pots filled with upland soil, and covered with upland soil. The seeds were grown in a greenhouse, and at the stage of 3˜4 leaves of these plants, a predetermined amount of the herbicide prepared in the above (1) was suspended in water, and the suspension was uniformly sprayed onto leaf and stalk portions at a rate of 2,000 liters/hectare. Then, the plants were grown in the greenhouse, and on the 30th day after the treatment, the herbicide was evaluated for herbicidal efficacy and phytotoxicity to the corn on the basis of the ratings shown in (2).

large crabgrass [3] = experiment: Upland post-emergence treatment test, large crabgrass; assay type: in vivo; details: post-emergence spray at 3-4 leaf stage, 80 g/ha, 30th day after treatment, greenhouse; note: ranges in brackets are in %
Description: as §1, §2, §3, §5

common ragweed [4] = experiment: Upland pre-emergence treatment test, common ragweed; assay type: in vivo, common ragweed (Ambrosia artemisilfolia); details: pre-emergence soil surface spray, 80 g/ha, 20th day after treatment, greenhouse; note: ranges in brackets are in %
Description: as §1, §2, §3, §4

velvetleaf [5] = experiment: Upland post-emergence treatment test, velvetleaf; assay type: in vivo, velvetleaf (Abutilon theophrasti); details: post-emergence spray at 3-4 leaf stage, 80 g/ha, 30th day after treatment, greenhouse; note: ranges in brackets are in %
Description: as §1, §2, §3, §5

large crabgrass [6] = experiment: Upland pre-emergence treatment test, large crabgrass; assay type: in vivo; details: pre-emergence soil surface spray, 80 g/ha, 20th day after treatment, greenhouse; note: ranges in brackets are in %
Description: as §1, §2, §3, §4

redroot pigweed [7] = experiment: Upland post-emergence treatment test, redroot pigweed; assay type: in vivo, redroot pigweed (Amaranthus retroflexus); details: for Herbicidal Efficacy CC = Redroot Pigweed: post-emergence spray at 3-4 leaf stage, 80 g/ha, 30th day after treatment, greenhouse; for Herbicidal Efficacy CC = Redroot Pigweed: ranges in brackets are in %
Description: as §1, §2, §3, §5

corn [8] = experiment: Upland post-emergence treatment test, phytotoxicity to corn; assay type: in vivo; details: post-emergence spray at 3-4 leaf stage, 80 g/ha, 30th day after treatment, greenhouse; note: ranges in brackets are in %
Description: as §1, §2, §3, §5

common ragweed [9] = experiment: Upland post-emergence treatment test, common ragweed; assay type: in vivo, common ragweed (Ambrosia artemisilfolia); details: post-emergence spray at 3-4 leaf stage, 80 g/ha, 30th day after treatment, greenhouse; note: ranges in brackets are in %
Description: as §1, §2, §3, §5

green foxtail [10] = experiment: Upland pre-emergence treatment test, green foxtail; assay type: in vivo, green foxtail (Setaria viridis); details: pre-emergence soil surface spray, 80 g/ha, 20th day after treatment, greenhouse; note: ranges in brackets are in %
Description: as §1, §2, §3, §4

common lambsquaters = experiment: Upland pre-emergence treatment test, common lambsquaters; assay type: in vivo, common lambsquaters (Chenopodium album); details: pre-emergence soil surface spray, 80 g/ha, 20th day after treatment, greenhouse; note: ranges in brackets are in %
Description: as §1, §2, §3, §4

redroot pigweed [11] = experiment: Upland pre-emergence treatment test, redroot pigweed; assay type: in vivo, redroot pigweed (Amaranthus retroflexus); details: for Herbicidal Efficacy CC = Rough Pigweed: pre-emergence soil surface spray, 80 g/ha, 20th day after treatment, greenhouse; for Herbicidal Efficacy CC = Rough Pigweed: ranges in brackets are in %
Description: as §1, §2, §3, §4

velvetleaf [12] = experiment: Upland pre-emergence treatment test, velvetleaf; assay type: in vivo, velvetleaf (Abutilon theophrasti); details: pre-emergence soil surface spray, 80 g/ha, 20th day after treatment, greenhouse; note: ranges in brackets are in %
Description: as §1, §2, §3, §4

Row | SMILES | Phytotoxicity Corn (corn [1]) | Herbicidal Efficacy EE = Green foxtail (green foxtail [2]) | Herbicidal Efficacy FF = Large crabgrass (large crabgrass [3]) | Herbicidal Efficacy DD = Common ragweed (common ragweed [4]) | Herbicidal Efficacy AA = Velvetleaf (velvetleaf [5]) | Herbicidal Efficacy FF = Large crabgrass (large crabgrass [6]) | Herbicidal Efficacy CC = Redroot Pigweed (redroot pigweed [7]) | Phytotoxicity Corn (corn [8]) | Herbicidal Efficacy DD = Common ragweed (common ragweed [9]) | Herbicidal Efficacy EE = Green foxtail (green foxtail [10]) | Herbicidal Efficacy BB = Common lambsquaters (common lambsquaters) | Herbicidal Efficacy CC = Rough Pigweed (redroot pigweed [11]) | Herbicidal Efficacy AA = Velvetleaf (velvetleaf [12]) | herbicidal efficacy against redroot pigweed (in words) (redroot pigweed [7]; post-emergence, Tables 8 and 9) | herbicidal efficacy against redroot pigweed (in words) (redroot pigweed [11]; pre-emergence, text summary of Table 7)
1 | CCN(CC)CC.Cc1c(C(=O)c2cnn(C)c2O)ccc2c1C(C)(C)CS2(=O)=O [Compound 50, 5-(1′-methyl-5′-hydroxypyrazol-4′-yl)carbonyl-3,3,4-trimethyl-2,3-dihydrobenzothiophene-1,1-dioxide triethylamine salt] | − (100) | 5 (0) | 5 (0) | 4 (1-20) | 5 (0) | 5 (0) | 5 (0) | − (100) | 5 (0) | 5 (0) | 5 (0) | 5 (0) | 5 (0) |  | 
2 | CCCS(=O)(=O)Oc1c(C(=O)c2ccc3c(c2C)C(C)(C)CS3(=O)=O)cnn1C [Compound 4, 5-(1′-methyl-5′-n-propanesulfonyloxypyrazol-4′-yl)carbonyl-3,3,4-trimethyl-2,3-dihydrobenzothiophene-1,1-dioxide] | − (100) | 5 (0) | 5 (0) | 5 (0) | 5 (0) | 5 (0) | 5 (0) | − (100) | 5 (0) | 5 (0) | 5 (0) | 5 (0) | 5 (0) |  | 
3 | Cc1c(C(=O)c2cnn(C)c2OC(=O)c2ccccc2)ccc2c1C(C)(C)CS2(=O)=O [Compound 39] | − (100) | 5 (0) | 5 (0) | 5 (0) | 5 (0) | 5 (0) | 5 (0) | − (100) | 5 (0) | 5 (0) | 5 (0) | 5 (0) | 5 (0) |  | 
4 | Cc1c(C(=O)c2cnn(C)c2O)ccc2c1C(C)(C)CS2(=O)=O [Compound 1, 5-(1′-methyl-5′-hydroxypyrazol-4′-yl)carbonyl-3,3,4-trimethyl-2,3-dihydrobenzothiophene-1,1-dioxide] | − (100) | 5 (0) | 5 (0) | 5 (0) | 5 (0) | 5 (0) | 5 (0) | − (100) | 5 (0) | 5 (0) | 5 (0) | 5 (0) | 5 (0) |  | 
5 | CCCS(=O)(=O)Oc1c(C(=O)c2cc(C)c3c(c2C)C(C)(C)CS3(=O)=O)cnn1CC [Compound (A), reference compound] | − (100) | 1 (61-80) | 1 (61-80) | 1 (61-80) | 2 (41-60) | 1 (61-80) | 0 (81-100) | − (100) | 2 (41-60) | 1 (61-80) | 2 (41-60) | 0 (81-100) | 2 (41-60) | clearly poor | clearly poor
